# Test results published in US8507559B2, “Cyclohexenyl modulators of chemokine receptor activity” (Bristol-Myers Squibb Company, priority 2008, dated 2013).
# Target: T1, CCR2 (Homo sapiens, UniProt P41597)
# T1 construct: THP-1 human monocytic leukemic cell line, which expresses endogenous CCR2; endogenous in cells; host or cells: human peripheral blood mononuclear cells, human monocytes or THP-1 cells
# T1 sequence (P41597 1-360 isoform P41597-2): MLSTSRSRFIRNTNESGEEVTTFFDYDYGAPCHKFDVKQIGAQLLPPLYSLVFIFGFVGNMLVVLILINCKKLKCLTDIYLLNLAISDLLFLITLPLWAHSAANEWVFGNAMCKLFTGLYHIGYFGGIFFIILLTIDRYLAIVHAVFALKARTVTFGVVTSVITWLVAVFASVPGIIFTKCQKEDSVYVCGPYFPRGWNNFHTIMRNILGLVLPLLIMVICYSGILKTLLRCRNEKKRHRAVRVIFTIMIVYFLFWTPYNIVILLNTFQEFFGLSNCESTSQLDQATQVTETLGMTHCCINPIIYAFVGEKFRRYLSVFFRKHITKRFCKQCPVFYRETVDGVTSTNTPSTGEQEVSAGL
# Assay: CCR2 binding: antagonism of 125I-MCP-1 binding (human PBMC / THP-1 whole cell)
# Details: n = 1 unless otherwise noted
# Procedure: Antagonism of MCP-1 Binding to Human PBMC
# Millipore filter plates (#MABVN1250) are treated with 100 μl of binding buffer (0.5% bovine serum albumin, 20 mM HEPES buffer and 5 mM magnesium chloride in RPMI 1640 media) for thirty minutes at room temperature. To measure binding, 50 μl of binding buffer, with or without a known concentration compound, is combined with 50 μl of ^125-I labeled human MCP-1 (to give a final concentration of 150 pM radioligand) and 50 μl of binding buffer containing 5×10^5 cells. Cells used for such binding assays can include human peripheral blood mononuclear cells isolated by Ficoll-Hypaque gradient centrifugation, human monocytes (Weiner et al., J. Immunol. Methods. 1980, 36, 89), or the THP-1 cell line which expresses the endogenous receptor. The mixture of compound, cells and radioligand are incubated at room temperature for thirty minutes. Plates are placed onto a vacuum manifold, vacuum applied, and the plates washed three times with binding buffer containing 0.5M NaCl. The plastic skirt is removed from the plate, the plate allowed to air dry, the wells punched out and counted. The percent inhibition of binding is calculated using the total counts obtained in the absence of any competing compound and the background binding determined by addition of 100 nM MCP-1 in place of the test compound.
# THP-1 Monocytic Cell Binding: Whole Cell-based Assay
# The human CCR2 binding assay was also established with the THP-1 human monocytic leukemic cell line, which expresses endogenous CCR2, using ^125I-human MCP-1 as the tracer ligand. Radioligand competition binding assays were used for assessment of binding affinity of test compounds to the CCR2 receptor. For radioligand competition studies, 100 μl containing 2.5×10^5 THP-1 cells/well (in assay buffer containing 50 mM HEPES, pH7.4, 5 mM MgCl2, 1 mM CaCl2 and 0.5% BSA) were added to 96-well assay plates containing the test compounds in 3-fold serial dilution, with final concentrations ranging from 5 μM to 100 pM. Subsequently, 50 μl ^125I-MCP-1 radioligand at a final concentration of 0.2 nM in assay buffer were added to the reaction. After a 90 minute incubation period at room temperature, the binding reaction was terminated by harvesting on GF/B filter plates (PerkinElmer Cat. No. 6005177) followed by washing with ice-cold wash buffer (50 mM HEPES, pH 7.4, 0.1% BSA, 0.5 M NaCl) to remove unbound ligand. After washing, the plate was dried for 45 minutes at 60° C. followed by addition of 40 μl MicroScint 20 scintillation fluid, sealed and analyzed by the Packard TopCount reader. Non-specific binding was determined in the presence of 10 μM (a molar excess of 5000 fold) of an in-house CCR2 small molecule antagonist (CCR2 IC50=2 nM). Specific binding of ^125I-MCP-1 was calculated as the difference between total and non-specific binding. The competition data was plotted as a percentage inhibition of radioligand specific bound in the absence of test compound (percent of total signal). After correcting for non-specific binding, IC50 values were determined. The IC50 is defined as the concentration of test compound required to reduce ^125I-MCP-1 specific binding by 50% and was calculated using the four parameter logistic equation to fit the normalized data.
row,SMILES,Ki
1,"CC1(c2ccc(Cl)c(Cl)c2)CCCC=C1C(=O)O (racemic) [Example 1-01, 6-(3,4-dichlorophenyl)-6-methylcyclohex-1-enecarboxylic acid]",440 nM
2,"CC1(c2ccc(Cl)cc2)CCCC=C1C(=O)O (racemic) [Example 1-02, 6-(4-chlorophenyl)-6-methylcyclohex-1-enecarboxylic acid]",3400 nM
3,"Cc1ccc([C@@]2(C)C[C@H](C)CC=C2C(=O)O)cc1Cl (racemic) [Example 1-04, (4RS,6RS)-6-(3-chloro-4-methylphenyl)-4,6-dimethylcyclohex-1-enecarboxylic acid]",69 nM
4,"C[C@@H]1CC=C(C(=O)O)[C@@](C)(c2ccc(F)c(F)c2)C1 (racemic) [Example 1-05, (4RS,6RS)-6-(3,4-difluorophenyl)-4,6-dimethylcyclohex-1-enecarboxylic acid]",3500 nM
5,"Cc1ccc(C2(C)CCCC=C2C(=O)O)cc1C (racemic) [Example 1-08, 6-(3,4-dimethylphenyl)-6-methylcyclohex-1-enecarboxylic acid]",8200 nM
6,"CC1(c2cccc(Cl)c2)CCCC=C1C(=O)O (racemic) [Example 1-09, 6-(3-chlorophenyl)-6-methylcyclohex-1-enecarboxylic acid]",3000 nM
7,"C[C@@H]1CC=C(C(=O)O)[C@@](C)(c2cccc(C(F)(F)F)c2)C1 (racemic) [Example 1-12, (4RS,6RS)-4,6-dimethyl-6-(3-(trifluoromethyl)phenyl)cyclohex-1-enecarboxylic acid]",280 nM
8,"C[C@@H]1CC=C(C(=O)O)[C@@](C)(c2ccc(Cl)c(C(F)(F)F)c2)C1 (racemic) [Example 1-13, (4RS,6RS)-6-(4-chloro-3-(trifluoromethyl)-phenyl)-4,6-dimethylcyclohex-1-enecarboxylic acid]",11 nM
9,"C[C@@H]1CC=C(C(=O)O)[C@@](C)(c2cc(C(F)(F)F)cc(C(F)(F)F)c2)C1 (racemic) [Example 1-14, (4RS,6RS)-6-(3,5-bis(trifluoromethyl)-phenyl)-4,6-dimethylcyclohex-1-enecarboxylic acid]",740 nM
10,"Cc1ccc([C@@]2(C)C[C@H](C)CC=C2C(=O)O)cc1C (racemic) [Example 1-15, (4RS,6RS)-6-(3,4-dimethylphenyl)-4,6-dimethylcyclohex-1-enecarboxylic acid]",330 nM
11,"C[C@@H]1CC=C(C(=O)O)[C@@](C)(c2cccc3ccccc23)C1 (racemic) [Example 1-16, (4RS,6RS)-4,6-dimethyl-6-(napthalen-1-yl)cyclohex-1-enecarboxylic acid]",140 nM
12,"Cc1cccc([C@@]2(C)C[C@H](C)CC=C2C(=O)O)c1 (racemic) [Example 1-18, (4RS,6RS)-4,6-dimethyl-6-m-tolylcyclohex-1-enecarboxylic acid]",930 nM
13,"C[C@@H]1CC=C(C(=O)O)[C@@](C)(c2ccc(F)cc2)C1 (racemic) [Example 1-22, (4RS,6RS)-6-(4-fluorophenyl)-4,6-dimethylcyclohex-1-enecarboxylic acid]",480 nM
14,"C[C@@H]1CC=C(C(=O)O)[C@@](C)(c2cccc(F)c2)C1 (racemic) [Example 1-23, (4RS,6RS)-6-(3-fluorophenyl)-4,6-dimethylcyclohex-1-enecarboxylic acid]",3700 nM
15,"C[C@@H]1CC=C(C(=O)O)[C@@](C)(c2ccccc2)C1 (racemic) [Example 1-24, (4RS,6RS)-4,6-dimethyl-6-phenylcyclohex-1-enecarboxylic acid]",1000 nM
16,"Cc1cc(C)cc([C@@]2(C)C[C@H](C)CC=C2C(=O)O)c1 (racemic) [Example 1-29, (4RS,6RS)-6-(3,5-dimethylphenyl)-4,6-dimethylcyclohex-1-enecarboxylic acid]",300 nM
17,"C[C@@H]1CC=C(C(=O)O)[C@@](C)(c2cc(Cl)cc(Cl)c2)C1 (racemic) [Example 1-30, (4RS,6RS)-6-(3,5-dichlorophenyl)-4,6-dimethylcyclohex-1-enecarboxylic acid]",110 nM
18,"C[C@H]1CCC(C(=O)O)[C@](C)(c2cccc(C(F)(F)F)c2)C1 (mixture of isomers) [Example 2, (2RS,4SR)-2,4-dimethyl-2-(3-(trifluoromethyl)phenyl)cyclohexanecarboxylic acid]",5800 nM

# Further compounds by falling Ki, results first:
row,Ki,SMILES
1,5400 nM,"C[C@@H]1CC=C(C(=O)NS(C)(=O)=O)[C@@](C)(c2ccc(Cl)c(Cl)c2)C1 (racemic) [Example 3-01, (4RS,6RS)-6-(3,4-dichlorophenyl)-4,6-dimethyl-N-(methylsulfonyl)cyclohex-1-enecarboxamide]"
2,3900 nM,"C[C@]1(c2ccc(Cl)c(Cl)c2)C[C@H](c2ccccc2)CC=C1C(=O)O (racemic) [Example 1-06, (4RS,6RS)-6-(3,4-dichlorophenyl)-6-methyl-4-phenylcyclohex-1-enecarboxylic acid]"
3,3700 nM,"Cc1cccc([C@@]2(C)C[C@H](C)CC=C2C(=O)O)c1C (racemic) [Example 1-19, (4RS,6RS)-6-(2,3-dimethylphenyl)-4,6-dimethylcyclohex-1-enecarboxylic acid]"
4,2600 nM,"Cc1ccc([C@@]2(C)C[C@H](C)CC=C2C(=O)O)cc1 (racemic) [Example 1-17, (4RS,6RS)-4,6-dimethyl-6-p-tolylcyclohex-1-enecarboxylic acid]"
5,1600 nM,"CC1(c2cccc(C(F)(F)F)c2)CCCC=C1C(=O)O (racemic) [Example 1-10, 6-methyl-6-(3-(trifluoromethyl)-phenyl)cyclohex-1-enecarboxylic acid]"
6,1100 nM,"Cc1cc([C@@]2(C)C[C@H](C)CC=C2C(=O)O)ccc1F (racemic) [Example 1-25, (4RS,6RS)-6-(4-fluoro-3-methylphenyl)-4,6-dimethylcyclohex-1-enecarboxylic acid]"
7,900 nM,"C[C@@H]1CC=C(C(=O)O)[C@@](C)(c2ccc(Cl)cc2)C1 (racemic) [Example 1-21, (4RS,6RS)-6-(4-chlorophenyl)-4,6-dimethylcyclohex-1-enecarboxylic acid]"
8,550 nM,"Cc1ccc(C)c([C@@]2(C)C[C@H](C)CC=C2C(=O)O)c1 (racemic) [Example 1-26, (4RS,6RS)-6-(2,5-dimethylphenyl)-4,6-dimethylcyclohex-1-enecarboxylic acid]"
9,320 nM,"C[C@@H]1CC=C(C(=O)O)[C@@](C)(c2ccc3ccccc3c2)C1 (racemic) [Example 1-20, (4RS,6RS)-4,6-dimethyl-6-(naphthalen-2-yl)cyclohex-1-enecarboxylic acid]"
10,250 nM,"C[C@@H]1CC=C(C(=O)O)[C@@](C)(c2cccc(-c3ccccc3)c2)C1 (racemic) [Example 1-03, (4RS,6RS)-6-(3-phenylphenyl)-4,6-dimethylcyclohex-1-enecarboxylic acid]"
11,250 nM,"Cc1ccc([C@@]2(C)C[C@H](C)CC=C2C(=O)O)c2ccccc12 (racemic) [Example 1-28, (4RS,6RS)-4,6-dimethyl-6-(4-methyl-naphthalen-1-yl)cyclohex-1-enecarboxylic acid]"
12,130 nM,"Cc1cc([C@@]2(C)C[C@H](C)CC=C2C(=O)O)cc(C)c1Cl (racemic) [Example 1-27, (4RS,6RS)-6-(4-chloro-3,5-dimethylphenyl)-4,6-dimethylcyclohex-1-enecarboxylic acid]"
13,80 nM,"C[C@@H]1CC=C(C(=O)O)[C@@](C)(c2ccc(Cl)c(Cl)c2)C1 (racemic) [Example 1-11, (4RS,6RS)-6-(3,4-dichlorophenyl)-4,6-dimethylcyclohex-1-enecarboxylic acid]"
